Data published in patent US20060120975A1, “Oral care composition comprising a phenolic compound and antioxidant vitamins and vitamin derivatives” (Colgate-Palmolive Company, priority 2004, published 2006).

Test system: IL-1β stimulated PGE2 production
Experiment: IL-1β stimulated PGE2 production cell culture assay, an inflammation model
Type: cell-based
Conditions: vitamin or vitamin derivative added to triclosan
Excerpt: The present invention is in part derived from a finding that, upon addition of an antioxidant vitamin or vitamin derivative to an antibacterial phenolic compound having anti-inflammatory activity, in particular a halogenated diphenylether compound having such activity, the anti-inflammatory activity can be enhanced.

Molecule	enhancing the anti-inflammatory activity of triclosan
vitamin E	less dramatic enhancement
Cc1c(C)c2c(c(C)c1O)CCC(C)(C(=O)O)O2 (centres unmarked) [TROLOX®]	especially effective
CC(=O)Oc1c(C)c(C)c2c(c1C)CCC(C)(CCC[C@H](C)CCC[C@H](C)CCCC(C)C)O2 (some centres unmarked) [vitamin E acetate]	especially effective
CCCCCCCCCCCCCCCC(=O)OC[C@H](O)[C@H]1OC(=O)C(O)=C1O [Ascorbyl palmitate, ascorbyl palmitate]	less dramatic enhancement
O=C1O[C@H]([C@@H](O)CO)C(O)=C1O [ascorbic acid]	especially effective
